Assay [1] deals with HER2 V659E cPAC cell lines. Kind of assay: 72 hour drug dose-response, CellTiter-Glo cell viability. It counts as cell-based, canine. The settings on record: for IC50: Canis lupus familiaris; for sensitivity of HER2 V659E lines relative to HER2 wild-type cell lines: in vitro viability. The source says:
(§1) Sample Collection: Tumors and cell lines from 89 dogs from the Canine Comparative Oncology and Genomics Consortium (CCOGC) (11) and The Ohio State University (OSU) College of Veterinary Medicine Biospecimen Repository were included. Board-certified veterinary pathologists confirmed tumor diagnosis based on histopathology. Tumor and normal tissue samples were flash frozen in liquid nitrogen or formalin-fixed and paraffin-embedded (FFPE). Cell lines were maintained in RPMI 1640 with GlutaMAX™ (Gibco™, Thermo Fisher Scientific, #61870036) supplemented with 10% heat-inactivated fetal bovine serum at 37° C. and 5% CO2 and passaged at 90% confluence. Cell lines with known passage data (except BACA) were sequenced within the first eight passages of derivation and subsequently expanded for phenotypic studies, and were authenticated by IDEXX BioResearch (Columbia, MO) using the Cell Check Canine STR Profile and Interspecies Contamination Test or by NkX2 (or TTF-1) RT-PCR. Human cell lines included BT474 (ATCC #HTB20, HER2 focal amplification) and H1781 (ATCC #CRL-5894, HER2 […]). Blood for cell-free DNA (cfDNA) and germline DNA extraction was collected in 10 ml K2 EDTA Blood tubes (Thermo Fisher Scientific #22-253-145). Plasma separation was performed at room temperature within 1 hour (2× serial centrifugation at 2000 rpm×15 minutes). Plasma aliquots were stored frozen at −80° C. DNA extraction from plasma, white blood cells and tissue was performed with MagMAX Cell-Free DNA Isolation Kit (Thermo Fisher Scientific #A29319), DNeasy Blood and Tissue Kit (QIAGEN #69504) and Qiagen AllPrep DNA/RNA Mini Kit (QIAGEN #80204), respectively.
(§2) Cells were cultured in RPMI supplemented with 10% FBS and 1% Penicillin/Streptomycin. Luminescence was read using Synergy Mx (Biotek) plate reader. Six replicates were performed for each dose. Curve-fitting and IC50 calculations were performed using GraphPad Prism v7.00 (GraphPad Software).
(§3) We first assessed differential sensitivity of HER2 V659E and HER2 WT canine lung cancer cell lines to lapatinib (HER2 and EGFR inhibitor) and neratinib (HER2, HER4, and EGFR inhibitor). Five cPAC cell lines (two HER2 V659E and three HER2 WT) were treated with neratinib and four (one HER2 V659E and three HER2 WT) with lapatinib for 72 hours. Two HER2-mutant human cancer cell lines-BT474 (HER2 AMP) and H1781 (kinase domain HER2 G776ins)—were treated as positive drug controls (18, 21) (FIGS. 2B and 6). […] Given that HER2 receptors dimerize with EGFR, we then evaluated differential sensitivity of the five canine cell lines and the human BT474 control line to the EGFR inhibitor, erlotinib.
For orientation: ATP-based viability assays read luminescence as a measure of living cells.

Assay [2] deals with HER2 WT cPAC cell lines. Described as above. The conditions noted are these: Canis lupus familiaris. Type of assay: cell-based, canine.
Text: as §1, §2, §3

The test system of assay [3] is HER2-mutant cell lines (HER2 V659E cPAC lines, BT474, H1781). The description is as above. Type of assay: cell-based, canine and human. The settings on record: all HER2-mutant cell lines. From the text: Sample Collection: Tumors and cell lines from 89 dogs from the Canine Comparative Oncology and Genomics Consortium (CCOGC) (11) and The Ohio State University (OSU) College of Veterinary Medicine Biospecimen Repository were included. Board-certified veterinary pathologists confirmed tumor diagnosis based on histopathology. Tumor and normal tissue samples were flash frozen in liquid nitrogen or formalin-fixed and paraffin-embedded (FFPE). Cell lines were maintained in RPMI 1640 with GlutaMAX™ (Gibco™, Thermo Fisher Scientific, #61870036) supplemented with 10% heat-inactivated fetal bovine serum at 37° C. and 5% CO2 and passaged at 90% confluence. […]
Cells were cultured in RPMI supplemented with 10% FBS and 1% Penicillin/Streptomycin. Luminescence was read using Synergy Mx (Biotek) plate reader. […]
We first assessed differential sensitivity of HER2 V659E and HER2 WT canine lung cancer cell lines to lapatinib (HER2 and EGFR inhibitor) and neratinib (HER2, HER4, and EGFR inhibitor). […] Given that HER2 receptors dimerize with EGFR, we then evaluated differential sensitivity of the five canine cell lines and the human BT474 control line to the EGFR inhibitor, erlotinib.

Assay [4] has as its system p-AKT in OSUK9PAPADO (HER2 WT). Kind of assay: Western blot of phospho-AKT and AKT under serum starvation. It counts as cell-based, canine. The conditions noted are these: 5 doses 20-2000 nmol/L. How it is done:
[…]
(§4) Immunoblot Analyses: Subconfluent cells were serum starved overnight, then treated with 20 nM neuregulin for 15 min prior to harvest. […] Membranes were blocked for 1 hour in LiCor blocking buffer and incubated with primary antibody at 4° C., overnight, followed by fluorescence-conjugated secondary antibodies. […]
Background: A western blot detects proteins with antibodies after separation by electrophoresis.

Assay [5] deals with p-AKT in OSUK9PAPADRi (HER2 V659E). Described as above. Type of assay: cell-based, canine. The conditions noted are these: 5 doses 20-2000 nmol/L. How it is done:
[…]
as §4

Assay [6] deals with p-AKT in BT474 (HER2amp). Described as above. Type of assay: cell-based, human. The settings on record: 5 doses 20-2000 nmol/L. How it is done: […]
as §4

The mark [7] stands for this setting: 72 h, read-out: IC50, viability.

Molecules are shown by their SMILES. Entries after “also recorded” stand apart in the source; their conditions may differ. Where two headings read alike, the source gives them in different places.

By IC50 is commonly meant the concentration needed to halve the response being measured. Turning to `C#Cc1cccc(Nc2ncnc3cc(OCCOC)c(OCCOC)cc23)c1` [erlotinib], the IC50 in assay [1] (72 h, read-out: IC50, viability, one of the two HER2 V659E lines, 72 hours) was 220 nM; in assay [1] (72 h, read-out: IC50, viability, other of the two HER2 V659E lines, 72 hours) it was 1170 nM; in assay [2] (setting [7]), 1100 to 15400 nM. Further, the “sensitivity of HER2-mutant canine cell lines” value in assay [1] (two HER2-mutant cell lines) is listed as “One of two HER2-mutant cell lines showed erlotinib sensitivity”.

Turning to `CS(=O)(=O)CCNCc1ccc(-c2ccc3ncnc(Nc4ccc(OCc5cccc(F)c5)c(Cl)c4)c3c2)o1` [lapatinib], the IC50 in assay [1] (HER2 V659E cPAC cell lines, 72 hours, both TKIs, read-out: IC50, viability) is less than 200 nM; in assay [2] (HER2 WT cPAC cell lines, 72 hours, both TKIs, read-out: IC50, viability), greater than 2500 nM. Also, the “sensitivity of HER2 V659E lines relative to HER2 wild-type cell lines” value in assay [1] is listed as “selectively sensitive; also recorded: hypersensitivity”.

In the case of `CCOc1cc2ncc(C#N)c(Nc3ccc(OCc4ccccn4)c(Cl)c3)c2cc1NC(=O)/C=C/CN(C)C` [neratinib], the IC50 is less than 200 nM in assay [1] (setting [7]); greater than 2500 nM in assay [2] (72 h, read-out: IC50, viability, HER2 WT cPAC cell lines, 72 hours, both TKIs); greater than 2700 nM in assay [2] (72 h, read-out: IC50, viability, HER2WT cells, 72 hours, p=0.0079 vs HER2-mutant); less than 50 nM in assay [3]. Moreover, in assay [1], the “sensitivity of HER2 V659E lines relative to HER2 wild-type cell lines” value was “selectively sensitive; also recorded: hypersensitivity”. The “p-AKT level by Western blot” value in assay [4] is “low at all treatment levels”; in assay [5], “dose-dependent decrease in p-AKT”; in assay [6], “dose-dependent decrease in p-AKT”.
